# According to paper PMC10582583, “The novel cyclophilin inhibitor C105SR reduces hepatic ischaemia–reperfusion injury via mitoprotection” (JHEP Reports, 2023):
# Assays:
# CypD = CypD (Homo sapiens, UniProt P30405); experiment: CypD PPIase activity, chymotrypsin-coupled assay; type: biochemical; conditions: Table 1
# [1] = test system: isolated mouse liver mitochondria; experiment: Calcium retention capacity (CRC) assay in isolated liver mitochondria; type: biochemical; conditions: for EC50: isolated mouse liver mitochondria; for maximal mitochondrial CRC, diastereoisomer vs racemic mixture: Fig. 2E; for maximal mitochondrial CRC: compound at 100 μM (Fig. 1C), basal 160 ± 8
# [2] = test system: isolated mouse liver mitochondria; experiment: Ca2+-induced mitochondrial swelling assay; type: biochemical; conditions: energised isolated mouse liver mitochondria
# AML-12 cells [3] = experiment: mPTP opening, CoCl2-calcein AM fluorescence-quenching assay, hypoxia/reoxygenation; type: cell-based, mouse; conditions: for prevention of mPTP opening (loss of calcein fluorescence): 1 μM, 4 h hypoxia, 1 h reoxygenation
# Description: We next evaluated the ability of compounds C105SR and C110SR to inhibit mPTP opening in cells. The hepatocyte cell line AML-12 was subjected to 4 h of hypoxia followed by 1 h of reoxygenation and mPTP opening was monitored using the CoCl2-calcein-acetoxymethyl ester (AM) fluorescence-quenching method.[19] Calcein-AM is a membrane permeable fluorophore which passively diffuses in all subcellular compartments including mitochondria. In the cell, the AM group of the fluorophore is cleaved by ubiquitous intracellular esterases, generating a hydrophilic product that is retained within the cell. The cells are then loaded with the divalent cobalt cation (Co^2+), which quenches calcein fluorescence in all subcellular compartments except the mitochondrial matrix, because the inner mitochondrial membrane is impermeable to cobalt. However, when mPTP is open, cobalt enters mitochondria and quenches mitochondrial calcein fluorescence. […]
# (§1) Hypoxia/reoxygenation (H/R) in vitro model. AML-12 mouse hepatocyte line was obtained from American Type Culture Collection (ATCC) and maintained in DMEM/F12 culture medium at 37°C with 5% CO2. HepaRG human hepatocyte line was obtained from American Type Culture Collection (ATCC) and maintained in William’S E culture medium at 37°C with 5% CO2.When indicated, cells were incubated in phosphate buffered saline at 37°C in a hypoxic chamber filled with 94% N2, 1% O2, 5% CO2 for 4 h to mimic ischemic conditions. Then, cells were transferred to a CO2 incubator at 37°C in regular DMEM/F12 culture medium for 1 or 2 h under normoxic conditions (74% N2, 21% O2, 5% CO2). SMCypIs or vehicle (DMSO) were added during the hypoxia period, during the reoxygenation period, or during both. CsA and ALV were used as positive controls for hepatic protection against H/R injury.
# Monitoring of mPTP opening. mPTP opening was monitored in AML-12 cells using the CoCl2-calcein AM fluorescence-quenching assay. Cells were loaded with 1 µM calcein-AM (green) for 20 min. Then, 1 mM CoCl2 was added and cells were incubated for another 10 min. Cells were washed and subjected to 4 h of hypoxia followed by 1 h of reoxygenation. Calcein fluorescence was measured using a spectrofluorimeter at excitation and emission wavelengths of 485 nm and 535 nm, respectively. Images were acquired using a standard inverted fluorescence microscope (Zeiss Axio, […]
# media during the entire H/R period. Images shown are representative images of 12-18 images. […]
# Optical density of purple formazan product was measured at 550 nm. […]
# AML-12 cells [4] = experiment: LDH release, hypoxia/reoxygenation; type: cell-based, mouse; conditions: 0.5 μM
# Description: As expected, cells subjected to hypoxia/reoxygenation were characterised by greater LDH release and reduced cell viability as compared to untreated controls (Fig. 4A and 4B). […]
# as §1, with “injury. […]” for “injury.”
# Cell viability assays. Lactate dehydrogenase (LDH) release in culture medium was assessed using the commercially non-radioactive CytoTox-96 kit (Promega, Madison, Wisconsin) following the manufacturer’s instructions. Briefly, cell culture media were collected and the LDH activity was determined by measuring absorbance at 491 nm with a spectrometer (Multiskan skyHigh). For 3-(4,5-dimethylthiazol-2-yl)-2,5-diphenyltetrazolium bromide (MTT) assay, cells were incubated with a solution of MTT (0.5 mg/mL) for 2 h at 37°C. The medium was then removed and 50 µL DMSO was added to each well. Optical density of purple formazan product was measured at 550 nm. Cell viability was expressed as a percentage of the untreated control.
# CypD, sequence (P30405 30-207): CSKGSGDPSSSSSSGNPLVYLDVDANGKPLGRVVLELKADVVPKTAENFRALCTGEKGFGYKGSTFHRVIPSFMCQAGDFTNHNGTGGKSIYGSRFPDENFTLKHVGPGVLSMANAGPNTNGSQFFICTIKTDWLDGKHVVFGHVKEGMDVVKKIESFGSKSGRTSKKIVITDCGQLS
Compound,IC50 (CypD) [nM],other results
CSc1ccccc1C1CCCN1C(=O)C(NC(=O)NCc1ccc(N)cc1)c1ccccc1 (stereo not shown) [Compound C31],200 ± 100,EC50 [1]: 9090 ± 210 nM; IC50 [2]: 1300 ± 50 nM; inhibition of mPTP opening (AML-12 cells [3]; 0.5 μM): not effective; inhibition of cell death (AML-12 cells [4]): not effective
"CSc1ccccc1C1CCCN1C(=O)C(NC(=O)NCc1ccc(N)cc1)C1CCCCC1 (stereo not shown) [Compound C71, 1-(4-aminobenzyl)-3-(1-cyclohexyl-2-(2-(2-(methylthio)phenyl)pyrrolidin-1-yl)-2-oxoethyl)urea]",790 ± 210,–
"CSc1ccccc1C1CCCN1C(=O)C(NC(=O)NC(C)c1ccc(N)c(F)c1)c1ccccc1 (stereo not shown) [Compound C101, 1-(1-(4-amino-3-fluorophenyl)ethyl)-3-(2-(2-(2-(methylthio)phenyl)pyrrolidin-1-yl)-2-oxo-1-phenylethyl)urea]",400 ± 190,–
"COc1ccc(Br)cc1C(NC(=O)NCc1ccc2c(c1)CCCN2)C(=O)N1CCCC1c1cccc2ccsc12 (stereo not shown) [Compound C105, 1-(2-(2-(benzo[b]thiophen-7-yl)pyrrolidin-1-yl)-1-(5-bromo-2-methoxyphenyl)-2-oxoethyl)-3-((1,2,3,4-tetrahydroquinolin-6-yl)methyl)urea]",–,"maximal mitochondrial CRC, diastereoisomer vs racemic mixture [1]: 407 ± 13 nmol Ca2+/mg of mitochondrial; maximal mitochondrial CRC [1]: 407 ± 13 nmol Ca2+/mg of mitochondrial; EC50 [1]: 2370 ± 110 nM; IC50 [2]: 690 ± 50 nM; prevention of mPTP opening (loss of calcein fluorescence) (AML-12 cells [3]): not"
"COc1ccc(OC)c(C(NC(=O)NCc2ccc(N)cc2)C(=O)N2CCCC2c2cccc3ccsc23)c1 (stereo not shown) [Compound C108, 1-(4-aminobenzyl)-3-(2-(2-(benzo[b]thiophen-7-yl)pyrrolidin-1-yl)-1-(2,5-dimethoxyphenyl)-2-oxoethyl)urea]",480 ± 230,–
"COc1ccc(Br)cc1C(NC(=O)NCc1ccc(N)cc1)C(=O)N1CCCC1c1cccc2ccsc12 (stereo not shown) [Compound C110, 1-(4-aminobenzyl)-3-(2-(2-(benzo[b]thiophen-7-yl)pyrrolidin-1-yl)-1-(5-bromo-2-methoxyphenyl)-2-oxoethyl)urea]",100 ± 20,"maximal mitochondrial CRC, diastereoisomer vs racemic mixture [1]: 400 ± 27 nmol Ca2+/mg of mitochondrial; maximal mitochondrial CRC [1]: 400 ± 27 nmol Ca2+/mg of mitochondrial; EC50 [1]: 2830 ± 90 nM; IC50 [2]: 370 ± 6 nM; prevention of mPTP opening (loss of calcein fluorescence) (AML-12 cells [3]): not"
"COc1cc(OC)c(C(NC(=O)NCc2ccc(N)cc2)C(=O)N2CCCC2c2cccc3ccsc23)cc1Br (stereo not shown) [Compound C112, 1-(4-aminobenzyl)-3-(2-(2-(benzo[b]thiophen-7-yl)pyrrolidin-1-yl)-1-(5-bromo-2,4-dimethoxyphenyl)-2-oxoethyl)urea]",480 ± 40,–
"CSc1ccccc1C1CCCN1C(=O)C(NC(=O)NCC1CC2(CNC2)C1)c1ccccc1 (stereo not shown) [Compound C119, 1-((2-azaspiro[3.3]heptan-6-yl)methyl)-3-(2-(2-(2-(methylthio)phenyl)pyrrolidin-1-yl)-2-oxo-1-phenylethyl)urea]",150 ± 30,–
"COc1ccc(Br)cc1C(NC(=O)NC(C)c1ccc(N)c(F)c1)C(=O)N1CCCC1c1ccccc1SC (stereo not shown) [Compound C123, 1-(1-(4-amino-3-fluorophenyl)ethyl)-3-(1-(5-bromo-2-methoxyphenyl)-2-(2-(2-(methylthio)phenyl)pyrrolidin-1-yl)-2-oxoethyl)urea]",1260 ± 370,–
"CSc1ccccc1C1CCCN1C(=O)C(NC(=O)NCc1cccc2c1OCCO2)c1ccccc1 (stereo not shown) [Compound C129, 1-((2,3-dihydrobenzo[b][1,4]dioxin-5-yl)methyl)-3-(2-(2-(2-(methylthio)phenyl)pyrrolidin-1-yl)-2-oxo-1-phenylethyl)urea]",260 ± 70,–
"CSc1ccccc1C1CCCN1C(=O)C(NC(=O)NCc1cccc2ccsc12)c1ccccc1 (stereo not shown) [Compound C142, 1-(benzo[b]thiophen-7-ylmethyl)-3-(2-(2-(2-(methylthio)phenyl)pyrrolidin-1-yl)-2-oxo-1-phenylethyl)urea]",420 ± 100,–

# More lines, main results first:
IC50 (CypD) [nM],Compound,other results
310 ± 160,"CSc1ccccc1C1CCCN1C(=O)C(NC(=O)NCc1cccc2c1CCN2)c1ccccc1 (stereo not shown) [Compound C144, 1-(indolin-4-ylmethyl)-3-(2-(2-(2-(methylthio)phenyl)pyrrolidin-1-yl)-2-oxo-1-phenylethyl)urea]",maximal mitochondrial CRC [1]: 422 ± 44 nmol Ca2+/mg of mitochondrial; EC50 [1]: 11760 ± 10 nM; IC50 [2]: 11570 ± 10 nM
1050 ± 720,"COc1ccc(OC)c(C(NC(=O)NCc2cccc3[nH]ccc23)C(=O)N2CCCC2c2ccccc2SC)c1 (stereo not shown) [Compound C170, 1-((1H-indol-4-yl)methyl)-3-(1-(2,5-dimethoxyphenyl)-2-(2-(2-(methylthio)phenyl)pyrrolidin-1-yl)-2-oxoethyl)urea]",–
340 ± 130,"COc1ccc(OC)c(C(NC(=O)NCc2cccc3[nH]ncc23)C(=O)N2CCCC2c2ccccc2SC)c1 (stereo not shown) [Compound C171, 1-((1H-indazol-4-yl)methyl)-3-(1-(2,5-dimethoxyphenyl)-2-(2-(2-(methylthio)phenyl)pyrrolidin-1-yl)-2-oxoethyl)urea]",–
210 ± 70,"CSc1ccccc1C1CCCN1C(=O)C(NC(=O)NCc1cccc2[nH]ccc12)c1ccccc1 (stereo not shown) [Compound C172, 1-((1H-indol-4-yl)methyl)-3-(2-(2-(2-(methylthio)phenyl)pyrrolidin-1-yl)-2-oxo-1-phenylethyl)urea]",–
490 ± 320,"CCNC(=O)N1CCCc2c(CNC(=O)NC(C(=O)N3CCCC3c3ccccc3SC)c3ccccc3)cccc21 (stereo not shown) [Compound C177, N-ethyl-5-((3-(2-(2-(2-(methylthio)phenyl)pyrrolidin-1-yl)-2-oxo-1-phenylethyl)ureido)methyl)-3,4-dihydroquinoline-1(2H)-carboxamide]",–
400 ± 190,"CSc1ccccc1C1CCCN1C(=O)C(NC(=O)NCc1cccc2[nH]ncc12)c1ccccc1 (stereo not shown) [Compound C178, 1-((1H-indazol-4-yl)methyl)-3-(2-(2-(2-(methylthio)phenyl)pyrrolidin-1-yl)-2-oxo-1-phenylethyl)urea]",–
590 ± 190,"CSc1ccccc1C1CCCN1C(=O)C(NC(=O)NN1Cc2ccc(N)cc2C1)c1ccccc1 (stereo not shown) [Compound C185, 1-(5-aminoisoindolin-2-yl)-3-(2-(2-(2-(methylthio)phenyl)pyrrolidin-1-yl)-2-oxo-1-phenylethyl)urea]",–
